Measured values reported in patent US9828344B2, “Inhibitors of the notch signaling pathway and secretion for use in medicine” (Leibniz-Institut für Altersforschung Fritz-Lipmann-Institut …, priority 2012, dated 2017).
Read-outs that look alike come from different tables or passages of the source.

Legend:
microtubuli or actin = assay: Microtubule and actin integrity in HeLa cells; assay type: cell-based; conditions: 4 h
ER = ER tubule-to-sheet live-cell imaging in COS cells (prlss-KDEL-mRFP); assay type: cell-based; conditions: 10 iM, 2 h
Method: FIG. 7: FLI-06 induces ER sheet formation. A) COS cells transfected with prlss-KDEL-mRFP were incubated with 10 μM FLI-06 for indicated times and imaged by live-cell microscopy. The inserts are magnifications of the boxed areas. B) Images from cells treated as in A) were scored for the percentage of cells that lost most of their ER-tubules. For each time point 40-60 cells were counted. Data represent mean percentages, error bars SEM, n=3 independent experiments.
FIG. 16: Only ER exit inhibitors convert ER tubules to sheets. COS cells plated on LabTek chambered coverslips were transiently transfected with the ER-marker prlss-KDEL-mRFP, incubated the next day for 2 h with 10 iM of indicated compounds and imaged by live-cell microscopy. […] FLI-06+CHX, cells were additionally incubated in 40 iM cycloheximide. Nife, nifedipine; nimo, nimodipine. Numbers refer to numbering in FIG. 5a.
We noted a morphological change of the ER upon FLI-06 incubation that was difficult to capture in fixed cells. Live-cell imaging was therefore performed in COS cells transfected with the ER marker prlss-KDEL-mRFP (supp. Ref 3) and FLI-06 was added for 120 min (FIG. 7a). After 120 min almost all cells had no detectable ER-tubules anymore and instead were filled with large sheet-like structures. […] To test whether the morphological change is related to the inhibition of ER exit, next our set of FLI-06 derivatives was tested. […] Rather, the ER-sheets are indicative for structural changes, maybe initiated within ERES, that inhibit ER exit.

COPII vesicles = assay: In vitro COPII budding assay with permeabilized cells; assay type: biochemical; conditions: no FLI-06 pretreatment of cells
Golgi apparatus = assay: Immunofluorescence of Golgi and early secretory pathway markers in HeLa cells; assay type: cell-based
endocytosis = assay: Transferrin uptake assay; assay type: cell-based
Method: FIG. 13: FLI-06 causes dispersal of early Golgi and TGN, but no tubulation of endosomes. Hela cells were incubated with DMSO or 10 iM FLI-06 or 1 ig/ml BFA for 18 h, fixed, stained with antibodies as indicated and imaged by fluorescence microscopy. Endosomes were visualized by adding Alexa555-labelled transferrin on ice and chasing for 15 min at 37° C. in the presence of indicated compounds. Arrows indicated tubulating endosomes, scalebar 10 im.
For the transferrin uptake assay cells were starved in serum free medium for 1 h at 37° C. Cells were then transferred on ice and medium was exchanged to serum free medium supplemented with 25 μg/ml AlexaFluor555-Transferrin conjugate (Molecular Probes) and test compounds. After 15 min on ice cells were incubated with pre-warmed serum-supplemented medium containing test compounds and incubated at 37° C.

GBF1 = target: T1, GBF1 (Homo sapiens, UniProt Q92538); assay: GBF1-GFP distribution in transfected HeLa cells; assay type: cell-based; conditions: FLI-06 10 μM, BFA 10 μg/ml, GCA 10 μM, 10 h
T1 construct: expressed in transfected cells; host or cells: HeLa (transient)
T1 sequence (Q92538 whole entry, species assumed): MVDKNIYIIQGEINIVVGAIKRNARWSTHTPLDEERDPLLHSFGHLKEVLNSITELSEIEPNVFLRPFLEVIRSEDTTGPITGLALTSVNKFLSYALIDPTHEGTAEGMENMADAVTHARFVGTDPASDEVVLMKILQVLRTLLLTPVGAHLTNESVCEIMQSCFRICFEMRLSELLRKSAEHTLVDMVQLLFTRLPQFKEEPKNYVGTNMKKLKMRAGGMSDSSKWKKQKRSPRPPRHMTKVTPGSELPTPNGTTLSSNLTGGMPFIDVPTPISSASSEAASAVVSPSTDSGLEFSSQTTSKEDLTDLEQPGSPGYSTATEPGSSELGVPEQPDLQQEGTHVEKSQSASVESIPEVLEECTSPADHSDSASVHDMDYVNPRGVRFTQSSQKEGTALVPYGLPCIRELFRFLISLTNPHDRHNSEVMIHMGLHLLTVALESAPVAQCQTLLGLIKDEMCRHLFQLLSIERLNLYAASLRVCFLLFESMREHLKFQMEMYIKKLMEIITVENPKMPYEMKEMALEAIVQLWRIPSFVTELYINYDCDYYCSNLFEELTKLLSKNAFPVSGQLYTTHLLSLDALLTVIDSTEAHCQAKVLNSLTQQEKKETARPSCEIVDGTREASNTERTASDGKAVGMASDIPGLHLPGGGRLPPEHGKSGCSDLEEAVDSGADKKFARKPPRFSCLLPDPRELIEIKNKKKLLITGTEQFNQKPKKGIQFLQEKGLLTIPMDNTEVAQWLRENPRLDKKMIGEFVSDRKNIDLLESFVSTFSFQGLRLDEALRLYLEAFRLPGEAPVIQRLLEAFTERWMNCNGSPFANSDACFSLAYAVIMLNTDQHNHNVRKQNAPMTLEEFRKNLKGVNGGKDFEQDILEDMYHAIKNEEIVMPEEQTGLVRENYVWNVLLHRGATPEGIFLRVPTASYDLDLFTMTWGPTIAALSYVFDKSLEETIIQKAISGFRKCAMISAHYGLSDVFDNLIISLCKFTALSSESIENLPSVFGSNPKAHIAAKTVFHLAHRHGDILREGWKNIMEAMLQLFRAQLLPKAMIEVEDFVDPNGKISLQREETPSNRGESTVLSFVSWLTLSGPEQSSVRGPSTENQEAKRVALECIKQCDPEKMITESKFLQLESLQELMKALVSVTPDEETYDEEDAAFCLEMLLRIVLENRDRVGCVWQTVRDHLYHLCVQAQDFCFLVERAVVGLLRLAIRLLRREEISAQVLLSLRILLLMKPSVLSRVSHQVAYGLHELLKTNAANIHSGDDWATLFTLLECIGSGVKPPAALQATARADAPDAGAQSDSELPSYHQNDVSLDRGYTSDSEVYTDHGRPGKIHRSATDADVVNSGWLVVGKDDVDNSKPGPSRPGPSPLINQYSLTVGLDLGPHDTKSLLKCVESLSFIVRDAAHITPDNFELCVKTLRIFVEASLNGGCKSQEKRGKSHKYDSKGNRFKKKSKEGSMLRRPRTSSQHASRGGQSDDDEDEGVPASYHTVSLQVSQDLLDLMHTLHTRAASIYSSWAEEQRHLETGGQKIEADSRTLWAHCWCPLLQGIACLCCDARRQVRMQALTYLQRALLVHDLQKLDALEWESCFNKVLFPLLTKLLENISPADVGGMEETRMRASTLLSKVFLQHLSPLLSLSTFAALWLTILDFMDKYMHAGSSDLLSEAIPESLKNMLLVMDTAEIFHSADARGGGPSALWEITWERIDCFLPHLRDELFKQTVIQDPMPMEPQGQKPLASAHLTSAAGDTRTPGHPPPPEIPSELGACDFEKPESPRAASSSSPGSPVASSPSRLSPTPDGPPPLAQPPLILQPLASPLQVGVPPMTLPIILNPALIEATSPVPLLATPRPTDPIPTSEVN

YFP-GPI = assay: Surface transport of YFP-GPI in HeLa cells; assay type: cell-based; conditions: 18 h; 1 ig/ml BFA or 10 iM FLI-06
KlothoS = assay: Secretion of KlothoS from transfected HeLa cells; assay type: cell-based; conditions: 18 h
Method: Thereafter cells were fixed and analyzed by immunofluorescence microscopy. […] After incubating with compounds for 18 h media were collected, cells lysed and both analyzed by Western Blotting using Klotho antibody. As loading control membranes were probed for actin. […] […] Tunicamycin (Tun) and 5 mM DTT were used as positive controls. […] Shown is the average of three independent experiments, error bars indicate standard deviation.

BIP and ATF6 [1] = assay: ER stress: BIP Western blot and ATF6 luciferase assay in HeLa cells; conditions: 6 or 24 h
NotchΔE-EGFP = assay: cells; assay type: cell-based
Source text: To identify novel regulatory factors involved in Notch trafficking/processing an image-based high content screen was set up. […] NotchΔE-EGFP is a direct substrate for γ-secretase at the PM, and under physiological conditions is proteolytically processed to NICD-EGFP that translocates into the nucleus (for scheme see FIG. 1b), resulting in a strong nuclear EGFP-staining in steady state^15 (FIG. 1d). […] Importantly, changes in subcellular localization of the reporter are amenable to quantitation by automated microscopy^15. Accordingly, reporter fluorescence was determined in the nucleus (nuc) and in a ring around the nucleus (enuc), and the ratio enuc/nuc was evaluated (schematized in FIG. 1c). Thereafter, the assay design was functionally validated. […] The assay also reliably detected trafficking defects in the secretory pathway. […] Taken together, the assay was validated for reliably detecting concentration and time dependent changes in trafficking and processing of the Notch reporter.
Cells were seeded in 96-well plates at a density of 5000 cells/well in 100 μl medium. The next day, 100 μl medium containing the respective test compounds was added. Cells were incubated for 16 h, fixed and processed for automated microscopy. For the putative gamma-secretase inhibitors the enuc intensity was divided by the DAPT control and for the trafficking inhibitors normalized percentage inhibition against DAPT/DMSO controls of log 2 transformed nuc/enuc ratios were calculated. Relative activity values were read into “R” (http://www.r-project.org/) and EC50 estimates were calculated using four-parameter log-logistic fit with the package “drc”^51.
Images were acquired on an ArrayScan VTi automated microscope (ThermoFisher) and numerical data were extracted with the Compartmental Analysis BioApplication of the bundled software suite. Compound screening raw data were collected at the FMP and data transformation was performed according to standard procedures (ref 17 and supp. Refs 6-7).

BIP and ATF6 [2] = system: BIP and ATF6

Structure (SMILES): COC(=O)Nc1nc2ccc(C(=O)c3cccs3)cc2[nH]1 [nocodazole, reference compound]
- microtubule network (microtubuli or actin; 1.5 ig/ml nocodazole or 10 iM FLI-06): almost completely disintegrated

Structure (SMILES): CC1=C(C(=O)OC2CCCCC2)C(c2ccccc2)C2=C(CC(C)(C)CC2=O)N1 (stereo not shown) [compound 5]
- ER tubule-to-sheets phenotype (ER): elicited the tubule-to-sheets phenotype

Structure (SMILES): O=S(=O)(NCCNC/C=C/c1ccc(Br)cc1)c1cccc2cnccc12 [H89, reference compound]
- COPII budding reaction, compound added directly to the assay (COPII vesicles): completely blocked formation of COPII vesicles

Structure (SMILES): CCCCCOC(=O)C1=C(C)NC2=C(C(=O)CC(C)(C)C2)C1c1ccc([N+](=O)[O-])cc1 (stereo not shown) [FLI-27]
- ER tubule-to-sheets phenotype (ER): elicited the tubule-to-sheets phenotype

Structure (SMILES): C[C@H]1CCC/C=C/[C@@H]2C[C@H](O)C[C@H]2[C@H](O)/C=C/C(=O)O1 [BFA, Brefeldin A, reference compound]
- time to loss of Golgi-like juxtanuclear βCOP staining (Golgi apparatus; 1 ig/ml BFA or 10 iM FLI-06): 10 min
- distribution of GM130 and TGN46 (Golgi apparatus; 10 iM FLI-06 or 1 ig/ml BFA, 18 h): dispersal of the cis-Golgi marker GM130 and of the trans-Golgi network (TGN) marker TGN46
- hyperglycosylation of VSVG-EGFP (Golgi apparatus; 4 h at 40° C. with cycloheximide): led to hyperglycosylation in the ER
- endocytosis of transferrin (endocytosis): did not affect endocytosis
- distribution of GBF1-GFP (GBF1): recruited to the fragmented Golgi
- surface transport of YFP-GPI (YFP-GPI): inhibit surface transport of YFP-GPI
- secretion of KlothoS (KlothoS): inhibit secretion of KlothoS
- ER-stress (BIP up-regulation, ATF6 luciferase) (BIP and ATF6 [1]): caused ER-stress

Structure (SMILES): CC1=C(C(=O)OC2CCCCC2)C(c2ccccc2)C2=C(CC(C)(C)CC2=O)N1 (stereo not shown) [FLI-25]
- activity in NotchΔE-EGFP cells (enuc/nuc ratios) (NotchΔE-EGFP; SAR and prior-art comparison, FIG. 5a/5b): inactive
- COPII budding reaction, compound added directly to the assay (COPII vesicles): neither 10 nor 100 μM of FLI-25 had an effect

Structure (SMILES): Fc1cc(F)c2c(c1)[C@H]1C=CC[C@H]1C(c1cccnc1)N2 (mixture of isomers) [GCA, Golgicide A, reference compound]
- distribution of GBF1-GFP (GBF1): recruited to the fragmented Golgi
- ER-stress (BIP up-regulation, ATF6 luciferase) (BIP and ATF6 [2]): caused ER-stress

Structure (SMILES): CC1=C(C(=O)OC2CCCCCC2)C(c2ccc([N+](=O)[O-])cc2)C2=C(CC(C)(C)CC2=O)N1 (stereo not shown) [FLI-28]
- activity relative to compound 1 (FLI-06) (NotchΔE-EGFP; enuc/nuc ratios in NotchΔE-EGFP cells): twice as active as compound 1
- ER tubule-to-sheets phenotype (ER): elicited the tubule-to-sheets phenotype

Structure (SMILES): C=C1[C@@H](C)[C@H]2[C@H](Cc3ccccc3)NC(=O)[C@]23[C@H](OC(C)=O)/C=C/[C@@](C)(O)C(=O)[C@@H](C)C/C=C/[C@H]3[C@@H]1O [Cytochalasin D, cytochalasin D, reference compound]
- actin polymerization and distribution (microtubuli or actin; 2 iM cytochalasin D or 10 iM FLI-06): depolymerized f-actin
